Source: the supplement of paper PMC11579375

Experiments:
Assay in all cases: area under the viability dose-response curve (AUC) (AUC (arbitrary units, max 500 = no viability loss)); higher = less sensitive (higher viability)
Details in all cases: exposure time: 120 h; concentration range: 0.1 nM - 10 µM, 6 doses
13E = system: 13E (embryonal-type hepatoblastoma organoid)
Procedure: (§1)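 Patient-derived hepatoblastoma tumor organoids (about 50 organoids per well, 384-well plates, medium with 5% BME) were treated with the PMC pediatric cancer drug library. Each drug was tested in duplicate at 6 concentrations (0.1 nM to 10 µM, 10-fold steps).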

17E = system: 17E (embryonal-type hepatoblastoma organoid)
Procedure: as §1

22E = system: 22E (embryonal-type hepatoblastoma organoid)
Procedure: as §1

17F1 = system: 17F1 (fetal-I hepatoblastoma organoid with intermediate liver markers)
Procedure: as §1

135F2 = system: 135F2 (fetal-II hepatoblastoma organoid with high liver markers)
Procedure: as §1

10F2 = system: 10F2 (fetal-II hepatoblastoma organoid with high liver markers)
Procedure: as §1

96F1 = system: 96F1 (fetal-I hepatoblastoma organoid with intermediate liver markers)
Procedure: as §1

8F1 = system: 8F1 (fetal-I hepatoblastoma organoid with intermediate liver markers)
Procedure: as §1

3E = system: 3E (embryonal-type hepatoblastoma organoid)
Procedure: as §1

27F1 = system: 27F1 (fetal-I hepatoblastoma organoid with intermediate liver markers)
Procedure: as §1

13F2 = system: 13F2 (fetal-II hepatoblastoma organoid with high liver markers)
Procedure: as §1

SMILES: C[C@@H]1CN(CC(=O)Nc2ccc3c(c2)Cc2cccc(-c4cc(=O)cc(N5CCOCC5)o4)c2S3)C[C@H](C)O1
- area under the viability dose-response curve (13E): 493
- area under the viability dose-response curve (17E): 457
- area under the viability dose-response curve (22E): 461
- area under the viability dose-response curve (17F1): > 500
- area under the viability dose-response curve (135F2): 470
- area under the viability dose-response curve (10F2): 430
- area under the viability dose-response curve (96F1): 480
- area under the viability dose-response curve (8F1): > 500
- area under the viability dose-response curve (3E): > 500
- area under the viability dose-response curve (27F1): 456
- area under the viability dose-response curve (13F2): 484

SMILES: FC(F)(F)c1ccc(/C=C/c2nc(COc3ccc(CCCCn4ccnn4)cc3)co2)cc1 [Mubritinib]
- area under the viability dose-response curve (13E): 339
- area under the viability dose-response curve (17E): 419
- area under the viability dose-response curve (22E): 449
- area under the viability dose-response curve (17F1): 245
- area under the viability dose-response curve (135F2): 334
- area under the viability dose-response curve (10F2): 438
- area under the viability dose-response curve (96F1): 269
- area under the viability dose-response curve (8F1): 263
- area under the viability dose-response curve (3E): 429
- area under the viability dose-response curve (27F1): 335
- area under the viability dose-response curve (13F2): 264

SMILES: O=C1NC(=O)[C@@H](c2cn3c4c(cccc24)CCC3)[C@@H]1c1c[nH]c2ccccc12 [Tivantinib]
- area under the viability dose-response curve (13E): 358
- area under the viability dose-response curve (17E): 345
- area under the viability dose-response curve (22E): 404
- area under the viability dose-response curve (17F1): 415
- area under the viability dose-response curve (135F2): 367
- area under the viability dose-response curve (10F2): 320
- area under the viability dose-response curve (96F1): 377
- area under the viability dose-response curve (8F1): 455
- area under the viability dose-response curve (3E): 349
- area under the viability dose-response curve (27F1): 375
- area under the viability dose-response curve (13F2): 350

SMILES: C=CC(=O)N1C[C@H](Nc2ncnc3[nH]ccc23)CC[C@@H]1C
- area under the viability dose-response curve (13E): > 500
- area under the viability dose-response curve (17E): > 500
- area under the viability dose-response curve (22E): > 500
- area under the viability dose-response curve (17F1): 488
- area under the viability dose-response curve (135F2): 471
- area under the viability dose-response curve (10F2): 426
- area under the viability dose-response curve (96F1): 482
- area under the viability dose-response curve (8F1): 495
- area under the viability dose-response curve (3E): 463
- area under the viability dose-response curve (27F1): > 500
- area under the viability dose-response curve (13F2): 460

SMILES: Cc1ccc(NC(=O)c2ccc(CN3CCN(C)CC3)cc2)cc1Nc1nccc(-c2cccnc2)n1 [Imatinib]
- area under the viability dose-response curve (13E): 499
- area under the viability dose-response curve (17E): 496
- area under the viability dose-response curve (22E): 500
- area under the viability dose-response curve (17F1): 478
- area under the viability dose-response curve (135F2): 478
- area under the viability dose-response curve (10F2): 488
- area under the viability dose-response curve (96F1): 498
- area under the viability dose-response curve (8F1): 483
- area under the viability dose-response curve (3E): 487
- area under the viability dose-response curve (27F1): 481
- area under the viability dose-response curve (13F2): 498

SMILES: COc1ccc(-c2ccc3c(N4CCOC[C@@H]4C)nc(N4CCOC[C@@H]4C)nc3n2)cc1CO [AZD8055]
- area under the viability dose-response curve (13E): 366
- area under the viability dose-response curve (17E): 331
- area under the viability dose-response curve (22E): 396
- area under the viability dose-response curve (17F1): 456
- area under the viability dose-response curve (135F2): 342
- area under the viability dose-response curve (10F2): 259
- area under the viability dose-response curve (96F1): 445
- area under the viability dose-response curve (8F1): 466
- area under the viability dose-response curve (3E): 316
- area under the viability dose-response curve (27F1): 468
- area under the viability dose-response curve (13F2): 278

SMILES: CS(=O)(=O)c1ccc(C(=O)Nc2ccc(Cl)c(-c3ccccn3)c2)c(Cl)c1 [Vismodegib]
- area under the viability dose-response curve (13E): 496
- area under the viability dose-response curve (17E): > 500
- area under the viability dose-response curve (22E): 452
- area under the viability dose-response curve (17F1): 489
- area under the viability dose-response curve (135F2): 473
- area under the viability dose-response curve (10F2): 443
- area under the viability dose-response curve (96F1): 494
- area under the viability dose-response curve (8F1): > 500
- area under the viability dose-response curve (3E): > 500
- area under the viability dose-response curve (27F1): 497
- area under the viability dose-response curve (13F2): 490

SMILES: COc1cccc2c1C(=O)c1c(O)c3c(c(O)c1C2=O)C[C@@](O)(C(C)=O)C[C@@H]3O[C@H]1C[C@H](N)[C@H](O)[C@H](C)O1 [Daunorubicin]
- area under the viability dose-response curve (13E): 301
- area under the viability dose-response curve (17E): 287
- area under the viability dose-response curve (22E): 317
- area under the viability dose-response curve (17F1): 301
- area under the viability dose-response curve (135F2): 283
- area under the viability dose-response curve (10F2): 247
- area under the viability dose-response curve (96F1): 284
- area under the viability dose-response curve (8F1): 400
- area under the viability dose-response curve (3E): 273
- area under the viability dose-response curve (27F1): 305
- area under the viability dose-response curve (13F2): 253

SMILES: O=C(/C=C/c1cccc(S(=O)(=O)Nc2ccccc2)c1)NO [Belinostat]
- area under the viability dose-response curve (13E): 401
- area under the viability dose-response curve (17E): 367
- area under the viability dose-response curve (22E): 425
- area under the viability dose-response curve (17F1): 437
- area under the viability dose-response curve (135F2): 386
- area under the viability dose-response curve (10F2): 365
- area under the viability dose-response curve (96F1): 409
- area under the viability dose-response curve (8F1): 434
- area under the viability dose-response curve (3E): 355
- area under the viability dose-response curve (27F1): 418
- area under the viability dose-response curve (13F2): 359

SMILES: CN(C)C/C=C/C(=O)Nc1ccc(C(=O)Nc2cccc(Nc3ncc(Cl)c(-c4c[nH]c5ccccc45)n3)c2)cc1 [THZ1]
- area under the viability dose-response curve (13E): 291
- area under the viability dose-response curve (17E): 281
- area under the viability dose-response curve (22E): 241
- area under the viability dose-response curve (17F1): 371
- area under the viability dose-response curve (135F2): 314
- area under the viability dose-response curve (10F2): 256
- area under the viability dose-response curve (96F1): 343
- area under the viability dose-response curve (8F1): 410
- area under the viability dose-response curve (3E): 223
- area under the viability dose-response curve (27F1): 435
- area under the viability dose-response curve (13F2): 276

SMILES: C[C@]1(O)C[C@@H](c2nc(-c3ccc4ccc(-c5ccccc5)nc4c3)c3c(N)nccn32)C1 [Linsitinib]
- area under the viability dose-response curve (13E): 405
- area under the viability dose-response curve (17E): 384
- area under the viability dose-response curve (22E): 391
- area under the viability dose-response curve (17F1): 492
- area under the viability dose-response curve (135F2): 487
- area under the viability dose-response curve (10F2): 467
- area under the viability dose-response curve (96F1): 454
- area under the viability dose-response curve (8F1): 484
- area under the viability dose-response curve (3E): 374
- area under the viability dose-response curve (27F1): 476
- area under the viability dose-response curve (13F2): 410

SMILES: CCn1cc(-c2ccnc3[nH]c(-c4cccc(CN(C)C)c4)cc23)c(-c2ccc(NC(=O)N(C)C)cc2)n1
- area under the viability dose-response curve (13E): 382
- area under the viability dose-response curve (17E): 297
- area under the viability dose-response curve (22E): 408
- area under the viability dose-response curve (17F1): 477
- area under the viability dose-response curve (135F2): 370
- area under the viability dose-response curve (10F2): 307
- area under the viability dose-response curve (96F1): 413
- area under the viability dose-response curve (8F1): 458
- area under the viability dose-response curve (3E): 322
- area under the viability dose-response curve (27F1): 387
- area under the viability dose-response curve (13F2): 298

SMILES: COc1cc2nccc(Oc3ccc(NC(=O)NC4CC4)c(Cl)c3)c2cc1C(N)=O [Lenvatinib]
- area under the viability dose-response curve (13E): 468
- area under the viability dose-response curve (17E): 434
- area under the viability dose-response curve (22E): 472
- area under the viability dose-response curve (17F1): > 500
- area under the viability dose-response curve (135F2): 469
- area under the viability dose-response curve (10F2): 419
- area under the viability dose-response curve (96F1): 474
- area under the viability dose-response curve (8F1): 461
- area under the viability dose-response curve (3E): 475
- area under the viability dose-response curve (27F1): 445
- area under the viability dose-response curve (13F2): 445

SMILES: O=C(c1cc(Cc2n[nH]c(=O)c3ccccc23)ccc1F)N1CCN(C(=O)C2CC2)CC1 [Olaparib]
- area under the viability dose-response curve (13E): 496
- area under the viability dose-response curve (17E): 494
- area under the viability dose-response curve (22E): 458
- area under the viability dose-response curve (17F1): > 500
- area under the viability dose-response curve (135F2): 492
- area under the viability dose-response curve (10F2): 470
- area under the viability dose-response curve (96F1): 490
- area under the viability dose-response curve (8F1): > 500
- area under the viability dose-response curve (3E): 477
- area under the viability dose-response curve (27F1): 476
- area under the viability dose-response curve (13F2): 491

SMILES: CC(=O)O[C@@]12CO[C@@H]1C[C@H](O)[C@@]1(C)C(=O)[C@H](O)C3=C(C)[C@@H](OC(=O)[C@H](O)[C@@H](NC(=O)OC(C)(C)C)c4ccccc4)C[C@@](O)([C@@H](OC(=O)c4ccccc4)[C@H]21)C3(C)C [Docetaxel]
- area under the viability dose-response curve (13E): 179
- area under the viability dose-response curve (17E): 175
- area under the viability dose-response curve (22E): 248
- area under the viability dose-response curve (17F1): 255
- area under the viability dose-response curve (135F2): 195
- area under the viability dose-response curve (10F2): 134
- area under the viability dose-response curve (96F1): 203
- area under the viability dose-response curve (8F1): 401
- area under the viability dose-response curve (3E): 101
- area under the viability dose-response curve (27F1): 267
- area under the viability dose-response curve (13F2): 171
